From US20260274785A1, “CYCLOHEXYL OR HETEROCYCLOALKYL BETA-HYDROXY ALKYL AMINES FOR USE IN THE TREATMENT OF HYPERGLYCAEMIA AND DISORDERS CHARACTERISED BY HYPERGLYCAEMIA” (ATROGI AB, priority 2023, published 2026)
Structures can show the parent of a compound that is named as a salt.

Assays:
L6-myotubes [1] = test: Measurement of intracellular cAMP levels in differentiated L6 cells; assay type: cell-based; conditions: Rattus norvegicus, 0.25 h, agonist final concentration 1×10^−5 M, 15 min, alpha screen cAMP kit, read-out: Biological example 2: intracellular cAMP levels, activity compared to that of isoproterenol
Protocol: (§1) L6-myoblasts were grown in Dulbecco's Modified Eagle's Medium (DMEM) containing 1 g/L glucose supplemented with 10% fetal bovine serum, 2 mM L-Glutamine, 50 U/mL penicillin, 50 μg/mL streptomycin and 10 mM HEPES. Cells were plated at 1×10^5 cells per mL in 24-well plates. After reaching 90% confluence the cells were grown in medium containing 2% FBS for 7 days where upon cells differentiated into myotubes.
Differentiated cells were serum-starved overnight and stimulated with an agonist, final concentration 1×10^−5 M, for 15 min in stimulation buffer (HBSS supplemented with 1% BSA, 5 mM HEPES and 1 mM IBMX, pH 7.4). The medium was aspirated and 100 μL of 95% EtOH was added to each well of the 24-well plate and cells were kept at −20° C. overnight. The EtOH was allowed to evaporate and 500 μL of lysis buffer (1% BSA, 5 mM HEPES and 0.3% Tween-20, pH 7.4) was added to each well. The plate was kept at −80° C. for 30 min and then at −20° C. until the day of detection when the samples were thawed. Intracellular cAMP levels were detected using an alpha screen cAMP kit (6760635D from Perkin Elmer). The activity for each compound is compared to that of isoproterenol.

L6-myotubes [2] = test: Glucose uptake (3H-2-deoxyglucose) in differentiated L6-myotubes; assay type: cell-based; conditions: agonist final concentration 1×10^−5 M, 3H-2-deoxyglucose uptake, read-out: Biological example 1: glucose uptake, activity compared to that of isoproterenol
Protocol: as §1
Differentiated L6-myotubes were serum-starved overnight in medium containing 0.5% fatty-acid free BSA and stimulated with an agonist, with a final concentration of 1×10^−5 M. After 1 h 40 min the cells were washed with warm glucose free medium or PBS twice and another portion of agonist was added to the glucose free medium. After 20 min the cells were exposed to 50 nM ^3H-2-deoxyglucose for another 10 min before washed in ice cold glucose free medium or PBS three times and lysed in 400 μL/well 0.2 M NaOH for 1 h at 60° C. The cell lysate was mixed with 4 mL scintillation buffer (Emulsifier Safe, Perkin Elmer) and the radioactivity was detected in a β-counter (Tri-Carb 4810TR, Perkin Elmer). The activity for each compound is compared to that of isoproterenol.

| SMILES | Emax at 10 µM (L6-myotubes [1]) | Emax at 10 µM (L6-myotubes [2]) |
| --- | --- | --- |
| CC(=O)NC(C)(C)C[C@H]1CC[C@@H](NC[C@H](O)c2cccc(F)c2)CC1 [Example 1, N-(1-((cis)-4-(((R)-2-(3-Fluorophenyl)-2-hydroxyethyl)amino)-cyclohexyl)-2-methylpropan-2-yl)acetamide] | < 25% | 50 to 75% |
| CC(C)(C[C@H]1CC[C@@H](NC[C@H](O)c2cccc(F)c2)CC1)NS(C)(=O)=O [Example 2, N-(1-((cis)-4-(((R)-2-(3-fluorophenyl)-2-hydroxyethyl)amino)-cyclohexyl)-2-methylpropan-2-yl)methanesulfonamide] | < 25% | < 25% |
| CC(=O)NC(C)(C)C[C@H]1CC[C@@H](NC[C@H](O)c2cncc(F)c2)CC1 [Example 3, N-(1-((cis)-4-(((R)-2-(5-Fluoropyridin-3-yl)-2-hydroxyethyl)amino)-cyclohexyl)-2-methylpropan-2-yl)acetamide] | < 25% | > 75% |
| CC(C)(C[C@H]1CC[C@@H](NC[C@H](O)c2cncc(F)c2)CC1)NS(C)(=O)=O [Example 4, N-(1-((cis)-4-(((R)-2-(5-Fluoropyridin-3-yl)-2-hydroxyethyl)amino)-cyclohexyl)-2-methylpropan-2-yl)methanesulfonamide] | < 25% | 50 to 75% |
| CC(=O)N1CCC(C)(NC[C@H](O)c2cccc(F)c2)CC1 [Example 5, (R)-1-(4-((2-(3-Fluorophenyl)-2-hydroxyethyl)amino)-4-methyl-piperidin-1-yl)ethan-1-one] | < 25% | 25 to 50% |
| CC1(NC[C@H](O)c2cccc(F)c2)CCN(S(C)(=O)=O)CC1 [Example 6, (R)-1-(3-Fluorophenyl)-2-((4-methyl-1-(methylsulfonyl)piperidin-4-yl)-amino)ethan-1-ol] | < 25% | > 75% |
| CC(=O)N1CCC(C)(NC[C@H](O)c2cncc(F)c2)CC1 [Example 7, (R)-1-(4-((2-(5-Fluoropyridin-3-yl)-2-hydroxyethyl)amino)-4-methyl-piperidin-1-yl)ethan-1-one] | < 25% | 50 to 75% |
| CC1(NC[C@H](O)c2cncc(F)c2)CCN(S(C)(=O)=O)CC1 [Example 8, (R)-1-(5-Fluoropyridin-3-yl)-2-((4-methyl-1-(methylsulfonyl)piperidin-4-yl)amino)ethan-1-ol dihydrochloride] | 25 to 50% | > 75% |
| CCOC(=O)CO[C@H]1CC[C@H](NC[C@H](O)c2cccc(F)c2)CC1 [Example 9, Ethyl 2-(((trans)-4-(((R)-2-(3-fluorophenyl)-2-hydroxyethyl)amino)-cyclohexyl)oxy)acetate] | < 25% | 25 to 50% |
| O=C(O)CO[C@H]1CC[C@H](NC[C@H](O)c2cccc(F)c2)CC1 [Example 10, 2-(((trans)-4-(((R)-2-(3-Fluorophenyl)-2-hydroxyethyl)amino)-cyclohexyl)oxy)acetic acid] | < 25% | 25 to 50% |
| CC(=O)N[C@H]1CC[C@@H](NC[C@H](O)c2cccc(F)c2)CC1 [Example 11, N-((cis)-4-(((R)-2-(3-fluorophenyl)-2-hydroxyethyl)amino)-cyclohexyl)acetamide] | < 25% | 50 to 75% |
| CC(=O)N[C@H]1CC[C@@H](NC[C@H](O)c2cncc(F)c2)CC1 [Example 12, N-((cis)-4-(((R)-2-(5-Fluoropyridin-3-yl)-2-hydroxyethyl)amino)-cyclohexyl)acetamide] | < 25% | > 75% |
| CS(=O)(=O)N[C@H]1CC[C@@H](NC[C@H](O)c2cccc(F)c2)CC1 [Example 13, N-((cis)-4-(((R)-2-(3-Fluorophenyl)-2-hydroxyethyl)amino)cyclohexyl)-methanesulfonamide hydrochloride] | < 25% | 50 to 75% |
| CS(=O)(=O)N[C@H]1CC[C@@H](NC[C@H](O)c2cncc(F)c2)CC1 [Example 14, N-((cis)-4-(((R)-2-(5-Fluoropyridin-3-yl)-2-hydroxyethyl)amino)-cyclohexyl)methanesulfonamide] | < 25% | > 75% |
| CC(=O)N[C@H]1CC[C@H](NC[C@H](O)c2cccc(F)c2)CC1 [Example 15, N-((trans)-4-(((R)-2-(3-Fluorophenyl)-2-hydroxyethyl)amino)-cyclohexyl)acetamide] | < 25% | 25 to 50% |
| CC(=O)N[C@H]1CC[C@H](NC[C@H](O)c2cncc(F)c2)CC1 [Example 16, N-((trans)-4-(((R)-2-(5-Fluoropyridin-3-yl)-2-hydroxyethyl)amino)-cyclohexyl)acetamide] | < 25% | 25 to 50% |
| CS(=O)(=O)N[C@H]1CC[C@H](NC[C@H](O)c2cccc(F)c2)CC1 [Example 17, N-((trans)-4-(((R)-2-(3-Fluorophenyl)-2-hydroxyethyl)amino)-cyclohexyl)methanesulfonamide] | < 25% | 50 to 75% |
| CS(=O)(=O)N[C@H]1CC[C@H](NC[C@H](O)c2cncc(F)c2)CC1 [Example 18, N-((trans)-4-(((R)-2-(5-fluoropyridin-3-yl)-2-hydroxyethyl)amino)-cyclohexyl)methanesulfonamide] | < 25% | 50 to 75% |
| COC(=O)CN1CCC(C)(NC[C@H](O)c2cccc(F)c2)CC1 [Example 19, Methyl (R)-2-(4-((2-(3-fluorophenyl)-2-hydroxyethyl)amino)-4-methyl-piperidin-1-yl)acetate dihydrochloride] | > 75% | > 75% |
| CC1(NC[C@H](O)c2cccc(F)c2)CCN(CC(=O)O)CC1 [Example 20, (R)-2-(4-((2-(3-Fluorophenyl)-2-hydroxyethyl)amino)-4-methyl-piperidin-1-yl)acetic acid acetate] | < 25% | 50 to 75% |
| COC(=O)CS(=O)(=O)N1CCC(C)(NC[C@H](O)c2cccc(F)c2)CC1 [Example 21, Methyl (R)-2-((4-((2-(3-fluorophenyl)-2-hydroxyethyl)amino)-4-methylpiperidin-1-yl)sulfonyl)acetate hydrochloride] | 25 to 50% | > 75% |
| CC1(NC[C@H](O)c2cccc(F)c2)CCN(S(=O)(=O)CC(=O)O)CC1 [Example 22, (R)-2-((4-((2-(3-Fluorophenyl)-2-hydroxyethyl)amino)-4-methyl-piperidin-1-yl)sulfonyl)acetic acid] | < 25% | > 75% |
| CCCCS(=O)(=O)N1CCC(C)(NC[C@H](O)c2cccc(F)c2)CC1 [Example 23, (R)-2-((1-(Butylsulfonyl)-4-methylpiperidin-4-yl)amino)-1-(3-fluoro-phenyl)ethan-1-ol acetate] | 25 to 50% | > 75% |
| CN(C)C(=O)N1CCC(C)(NC[C@H](O)c2cccc(F)c2)CC1 [Example 24, (R)-4-((2-(3-Fluorophenyl)-2-hydroxyethyl)amino)-N,N,4-trimethyl-piperidine-1-carboxamide acetate] |  | > 75% |
